Values after ≈ are worked out from the molar mass of the structure shown.
Columns and labels:
MOLT-4 cells [1] = experiment: Cytotoxicity assessment by method of the present invention (PO-PRO-1 Iodide fluorescence before/after Triton X-100); type: cell-based, human; conditions: two days incubation, from viable cell numbers
MOLT-4 cells [2] = experiment: Cytotoxicity assessment by MTT assay system; type: cell-based, human; conditions: two days incubation

CO[C@@]12[C@H](COC(N)=O)C3=C(C(=O)C(C)=C(N)C3=O)N1C[C@@H]1N[C@@H]12 [Mitomycin C]
IC50 (MOLT-4 cells [1]): 2.2 µg/mL (≈ 6.58 µM) | IC50 (MOLT-4 cells [2]): 5.5 µg/mL (≈ 16.5 µM)

From patent US20020119438A1, “METHOD FOR D[…] CELL COUNT” (priority 1995, published 2002)
